Results from article PMC8617944, “Preclinical Pharmacokinetics and Acute Toxicity in Rats of 5-{[(2E)-3-Bromo-3-carboxyprop-2-enoyl]amino}-2-hydroxybenzoic Acid: A Novel 5-Aminosalicylic Acid Derivative with Potent Anti-Inflammatory Activity” (Molecules, 2021).

What was measured:
[1] = Stability of stock solutions; type: physicochemical; details: 1000 μg/mL in acetonitrile-methanol (50:50, v/v), 2–4 °C
Procedure: Six stock solutions at 1000 μg/mL of C1 were prepared by dissolving 10 mg in a mixture of acetonitrile-methanol (50:50, v/v), adjusting the volume in a volumetric flask of 10 mL and storing the final solution at 2–4 °C. […] Calibration standards were prepared daily from the stock solution at concentrations of 0.1, 0.5, 1, 5, 10, 50, and 100 μg/mL, and calibration curves were constructed in triplicate by plotting known concentrations of the standard versus the detector response area (File S4).

[2] = Stability of C1 in rat plasma (RP-HPLC); type: in vitro ADME; details: for Difference at 12 h (%) / Difference at 24 h (%) / Difference at 48 h (%): rat plasma
Procedure: C1 was quantified in a liquid chromatograph Agilent 1260 Infinity Series (Agilent Technologies, Palo Alto, CA, USA) equipped with a quaternary pump delivery system (G1311B), robotic autosampler (G1316A), column thermostat (G1316A), and a multi-wavelength UV detector (G1315C). The results were analyzed with OpenLab CDS EZChrom. Separation was performed on a Zorbax SB-Phenyl column (5 µm, 4.6 × 150 mm, Agilent Technologies, Palo Alto, CA, USA) and UV detection was carried out at 305 nm. The column temperature was maintained at 25 °C, and the injection volume was 10 μL. The mobile phase consisted of a mixture of (A) acetonitrile, (B) methanol, and (C) water at a ratio of 50% A, 10% B, and 40% C, at a flow rate of 1.0 mL/min. The total analysis time for each sample was 5.0 min when using an isocratic elution. It was not necessary to equilibrate between each injection.
In addition, the potential interference of heparin, ketamine, and xylazine was investigated. Method specificity was assessed by the values of peak identity and purity of C1. A peak purity angle that is less than the peak threshold angle is an indication of spectral homogeneity or purity of C1. Stability of C1 in plasma was evaluated in triplicate using the quality control samples at four concentrations. Samples were stored at 25 °C for 12, 24, and 48 h (short-term stability), and three freeze-thaw cycles at −20 to +25 °C for 12, 24, and 48 h. […] The concentration of C1 after each storage period was compared to the initial concentration, which was determined for freshly prepared samples [57, 59].

[3] = design: method as in ref 32, 33 = [32]; doi:10.1016/j.arabjc.2016.12.026; 32. Cabrera Pérez L.C. Gutiérrez Sánchez M. Mendieta Wejebe J.E. Hernández Rodríguez M. Fragoso Vázquez M.J. Salazar J.R. Correa Basurto J. Padilla Martínez I.I. Rosales Hernández M.C. Novel 5-aminosa || [33]; 33. Correa Basurto J. Rosales Hernández M.C. Mendieta Wejebe J.E. Trujillo Ferrara J.G. Padilla Martínez I.I. Ramírez Durán L.A. Alemán González Duhart D. Síntesis de un derivado del ácido 5-aminosali; details: 0.408 mM; cited from earlier work
[4] = design: method as in ref 32 = [32]; doi:10.1016/j.arabjc.2016.12.026; 32. Cabrera Pérez L.C. Gutiérrez Sánchez M. Mendieta Wejebe J.E. Hernández Rodríguez M. Fragoso Vázquez M.J. Salazar J.R. Correa Basurto J. Padilla Martínez I.I. Rosales Hernández M.C. Novel 5-aminosa; details: Osiris Property Server Explorer; cited from earlier work
[5] = Plasma protein binding assay (ultrafiltration, RP-HPLC); type: in vitro ADME, Wistar rats; details: rat plasma
Procedure: Different quantities of C1 stock solution at 10 mg/mL were spiked into 600 µL of freshly obtained blank rat plasma to give a final concentration of 1, 5, 10, and 20 µg/mL. The resulting samples were incubated at 37 °C for 4 h. After incubation, an aliquot of 100 µL was removed to determine the total concentration, and another aliquot of 500 µL was transferred to a 10 kD cut-off ultrafiltration device (Millipore Corporation, Burlington, MA, USA). Subsequently, samples were centrifuged at 2000× g and 37 °C for 2 h. The free drug concentration of C1 was measured by evaluating 100 µL of ultrafiltrate with RP-HPLC, interpolating the main areas of the samples into a standard curve constructed with known amounts of C1. The percentage of protein binding was calculated with the following formula (1). Protein binding ratio (%) = […](1)

[6] = Blood/plasma partitioning (BP ratio); type: in vitro ADME, rats; details: rat whole blood, 37 °C, 4 h
Procedure: Appropriate amounts of C1 stock solution at 10 mg/mL were spiked into whole blood to obtain samples (prepared in triplicate) at a final concentration of 1, 5, and 10 and 20 μg/mL (in a final volume of 600 μL), to be incubated at 37 °C for 4 h. Plasma was harvested from blood samples by centrifuging at 8000 rpm for 15 min, and then the concentration of C1 was established using the RP-HPLC method and interpolating the response area into a standard curve prepared with C1 and blank plasma. The BP ratio was calculated by dividing 5 and 10 µg/mL, respectively, by the concentration found in plasma separated from blood samples. The concentration of C1 in blood cells is assumed to be equal to its unbound concentration in plasma.

[7] = refrigeration (4 °C), 0.1 µg/mL
[8] = refrigeration (4 °C), 0.5 µg/mL
[9] = refrigeration (4 °C), 100 µg/mL
[10] = room temperature (25 °C), 0.1 µg/mL, difference to nominal concentration
[11] = room temperature (25 °C), 0.5 µg/mL
[12] = room temperature (25 °C), 10 µg/mL
[13] = room temperature (25 °C), 100 µg/mL
[14] = three freeze–thaw cycles (−20 to +25 °C), 0.1 µg/mL
[15] = three freeze–thaw cycles (−20 to +25 °C), 0.5 µg/mL
[16] = three freeze–thaw cycles (−20 to +25 °C), 10 µg/mL
[17] = three freeze–thaw cycles (−20 to +25 °C), 100 µg/mL

O=C(/C=C(/Br)C(=O)O)Nc1ccc(O)c(C(=O)O)c1 [Compound C1, 5-{[(2E)-3-bromo-3-carboxyprop-2-enoyl]amino}-2-hydroxybenzoic acid]
stability of stock solutions [1]: stable for three months | stability in rat plasma ([2]; 4 °C): up to 72 h at 4 °C | stability in rat plasma ([2]; 25 °C): stable in rat plasma stored up to 48 h at 25 °C | Difference at 12 h (%) [2, 7]: 5.1% | Difference at 24 h (%) [2, 7]: 14.0% | Difference at 48 h (%) [2, 7]: 4.3% | Difference at 12 h (%) [2, 8]: 4.0% | Difference at 24 h (%) [2, 8]: 3.6% | Difference at 48 h (%) [2, 8]: 5.3% | Difference at 12 h (%) ([2]; refrigeration (4 °C), 10 µg/mL): 10.1% | Difference at 24 h (%) ([2]; refrigeration (4 °C), 10 µg/mL): 13.1% | Difference at 48 h (%) ([2]; refrigeration (4 °C), 10 µg/mL): 9.3% | Difference at 12 h (%) [2, 9]: 1.2% | Difference at 24 h (%) [2, 9]: 0.2% | Difference at 48 h (%) [2, 9]: 5.2% | Difference at 12 h (%) [2, 10]: 10.7% | Difference at 24 h (%) [2, 10]: 3.2% | Difference at 48 h (%) [2, 10]: 3.8% | Difference at 12 h (%) [2, 11]: 3.2% | Difference at 24 h (%) [2, 11]: 7.8% | Difference at 48 h (%) [2, 11]: 4.1% | Difference at 12 h (%) [2, 12]: 9.5% | Difference at 24 h (%) [2, 12]: 6.5% | Difference at 48 h (%) [2, 12]: 3.7% | Difference at 12 h (%) [2, 13]: 0.5% | Difference at 24 h (%) [2, 13]: 6.5% | Difference at 48 h (%) [2, 13]: 5.4% | Difference at 12 h (%) [2, 14]: 5.1% | Difference at 24 h (%) [2, 14]: 1.76% | Difference at 48 h (%) [2, 14]: 3.4% | Difference at 12 h (%) [2, 15]: 0.1% | Difference at 24 h (%) [2, 15]: 0.3% | Difference at 48 h (%) [2, 15]: 1.0% | Difference at 12 h (%) [2, 16]: 0.7% | Difference at 24 h (%) [2, 16]: 1.2% | Difference at 48 h (%) [2, 16]: 3.2% | Difference at 12 h (%) [2, 17]: 0.1% | Difference at 24 h (%) [2, 17]: 0.6% | Difference at 48 h (%) [2, 17]: 2.0% | stability in rat plasma ([2]; three freeze–thaw cycles): stable before the three freeze–thaw cycles | reduction of the free radical DPPH [3]: about 90% | predicted toxicity index [4]: low toxicity index | fraction unbound at 4 h, 1 µg/mL ([5]; Wistar, 1 µg/mL, read-out: Percentage of Unbound Fraction ± SD (%)): 0.963 ± 0.014 | fraction unbound at 4 h, 5 µg/mL ([5]; Wistar, 5 µg/mL, read-out: Percentage of Unbound Fraction ± SD (%)): 0.942 ± 0.024 | fraction unbound at 4 h, 10 µg/mL ([5]; Wistar, 10 µg/mL, read-out: Percentage of Unbound Fraction ± SD (%)): 0.934 ± 0.015 | fraction unbound at 4 h, 20 µg/mL ([5]; Wistar, 20 µg/mL, read-out: Percentage of Unbound Fraction ± SD (%)): 0.948 ± 0.023 | fraction unbound at 4 h ([5]; Wistar, 1 to 20 μg/mL): 0.934 to 0.963 | Percentage of Bound Fraction ± SD (%) ([5]; 1 µg/mL): 3.7 ± 1.1% | Percentage of Bound Fraction ± SD (%) ([5]; 5 µg/mL): 5.8 ± 2.4% | Percentage of Bound Fraction ± SD (%) ([5]; 10 µg/mL): 6.6 ± 1.5% | Percentage of Bound Fraction ± SD (%) ([5]; 20 µg/mL): 5.2 ± 2.3% | BP Ratio ± SD ([6]; 5 µg/mL): 0.54 ± 0.02 | BP Ratio ± SD ([6]; 10 µg/mL): 0.40 ± 0.01
